Test results reported in patent US20220251109A1, “OXAAZAQUINAZOLINE-7(8H)-KETONE COMPOUND, PREPARATION METHOD THEREFOR AND PHARMACEUTICAL APPLICATION THEREOF” (GENFLEET THERAPEUTICS (SHANGHAI) INC., priority 2019, published 2022).
Where two headings read alike, the source gives them in different places.

Assays:
Format in all cases: cell-based, human
[1] = tested on: NCI-H358 cells (Kras G12C mutation); test: Cell proliferation inhibition experiment, 3D model, CellTiter-Glo (NCI-H358); details: NCI-H358, 3D sphere plate, 5 days, 2% FBS
Method in brief: (§1)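 Luminescent ATP read-out (CellTiter-Glo) after 5-day compound treatment gave % inhibition relative to DMSO control and medium blank, fitted four-parameter for IC50. Spheroids were formed overnight in 2% FBS medium from 800 H358 or 400 A549 cells per well; dilutions were 3.16-fold, final DMSO 0.1%.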

[2] = tested on: A549 cells (Kras G12S mutation); test: Cell proliferation inhibition experiment, 3D model, CellTiter-Glo (A549); details: A549, 3D sphere plate, 5 days, 2% FBS
Method in brief: as §1

[3] = tested on: p-ERK in MIA PaCa2 cells (Kras G12C mutation); test: Cell p-ERK detection experiment (HTRF) in MIA PaCa2 cells; details: compound 2 hours
Experimental: MIA PaCa2 was a human pancreatic cancer cell line with Kras G12C mutation, cultured in 10% FBS+2.5% Horse serum DMEM medium. The cells in the logarithmic growth phase were taken, digested with enzyme EDTA, collected, counted and 2.5E4 cells were seeded in a 96-well cell culture plate, cultured overnight. DMSO was used to prepare 1000× compound 3.16-fold gradient concentration stock solution, and medium was used to dilute 200-fold to 5× compound stock solution. On the second day after cell seeding, 5× compound stock solution was added to each cell culture well, the final concentration was 1×, and DMSO content was 0.1%. DMSO was used as an experimental control (control). After the compound was added and cultured for two hours, the remaining medium was removed. 50 ul cell lysis buffer was added to each well, mixed and incubated for 30 minutes, then 16 ul of the mixture was transferred to a 96-well plate with a non-transparent white bottom, and 16 ul cell lysis buffer was added to blank wells. After the completion of the transfer, 4 ul p-ERK HTRF antibody mixture was added to each well, incubated for 4 hours and the fluorescence value was read. The compound inhibition rate IR (%)=(RLU control-RLU compound)/(RLU control-RLU blank)×100% was calculated, Prism 8 four-parameter method was used to fit the compound's gradient dilution concentration and the corresponding cell proliferation inhibition rate, and the IC50 value was calculate.

[4] = tested on: MIA PaCa-2 cells (Kras G12C mutation); test: Cell proliferation inhibition experiment, 3D model, CellTiter-Glo (MIA PaCa-2); details: MIA PaCa-2, 3D sphere plate, 5 days, read-out: MIA-PaCa2 IC50
Method in brief: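 3D spheroid model: 200 MIA PaCa-2 cells per well cultured overnight, then treated with a 3.16-fold compound dilution series (0.1% DMSO) for 5 days. Viability read by CellTiter-Glo luminescence. Inhibition rate normalised to DMSO and medium-blank controls; IC50 from four-parameter fit.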

[5] = Homo sapiens, MIA PaCa-2, 120 h

Structure (SMILES)	IC50 [1] [nM]	IC50 ([2]; Homo sapiens, A549, 120 h) [nM]	IC50 [3] [nM]	IC50 [4, 5] [nM]	IC50 [2] [nM]	IC50 [4] [nM]	IC50 ([1]; Homo sapiens, NCI-H358, 120 h) [nM]	IC50 ([3]; Homo sapiens, MIA PaCa-2, 2 h) [nM]
C=CC(=O)N1CCN2c3nc(=O)n(-c4c(C)ccnc4C(C)C)c4nc(-c5c(O)cccc5F)c(F)c(c34)OC[C@H]2C1 [Compound Z73]	2	> 10000	22	3	–	–	–	–
C=CC(=O)N1CCN2c3nc(=O)n(-c4c(C)ccnc4C(C)C)c4nc(-c5cccc(F)c5F)c(Cl)c(c34)OC[C@@H]2C1 (single isomer, unassigned) [Compound Z47-1]	1	–	15	–	> 10000	3	–	–
C=CC(=O)N1CCN2c3nc(=O)n(-c4c(C)ncnc4C4CC4)c4nc(-c5c(O)cccc5F)c(F)c(c34)OC[C@H]2C1 [Compound Z108]	–	> 30000	–	17	–	–	9	49
C=CC(=O)N1CCN2c3nc(=O)n(-c4c(C)ncnc4C(C)C)c4nc(-c5cccc(F)c5F)c(Cl)c(c34)OC[C@H]2C1 (single isomer, unassigned) [Compound Z96-2]	2	–	7	2	> 10000	–	–	–
C=CC(=O)N1CCN2c3nc(=O)n(-c4c(C)ccnc4C(C)C)c4nc(-c5c(F)cccc5Cl)c(Cl)c(c34)OC[C@@H]2C1 [Compound Z67]	–	> 10000	–	6	–	–	3	21
C=CC(=O)N1CCN2c3nc(=O)n(-c4c(C)ccnc4C(C)C)c4nc(-c5ccc(Cl)cc5F)c(Cl)c(c34)OC[C@@H]2C1 [Compound Z65]	–	> 10000	–	34	–	–	9	182
C=CC(=O)N1CCN2c3nc(=O)n(-c4c(C)ccnc4C4CC4)c4nc(-c5c(O)cccc5F)c(F)c(c34)OC[C@H]2C1 (single isomer, unassigned) [Compound Z112-2]	94	–	502	–	> 30000	126	–	–
C=CC(=O)N1CCN2c3nc(=O)n(-c4c(C)ccnc4C(C)C)c4nc(-c5c(O)cccc5F)c(F)c(c34)OC[C@H]2C1 (single isomer, unassigned) [Compound Z73-2]	2	–	20	–	> 10000	5	–	–
C=CC(=O)N1CCN2c3nc(=O)n(-c4c(C)c(Cl)nn4C(C)C)c4nc(-c5ccccc5F)c(Cl)c(c34)OC[C@H]2C1 [Compound Z119]	–	7900	–	113	–	–	12	59
C=CC(=O)N1CCN2c3nc(=O)n(-c4c(C)ccnc4C(C)C)c4nc(-c5cccc(Cl)c5F)c(Cl)c(c34)OC[C@H]2C1 (single isomer, unassigned) [Compound Z91-2]	3	–	18	15	> 30000	–	–	–
C=CC(=O)N1CCN2c3nc(=O)n(-c4c(C)ccnc4C(C)C)c4nc(-c5cc(F)ccc5F)c(Cl)c(c34)OC[C@@H]2C1 [Compound Z60]	–	> 10000	–	19	–	–	7	47
C=CC(=O)N1CCN2c3nc(=O)n(-c4c(C)cc(=O)n(C)c4C(C)C)c4nc(-c5ccccc5F)c(Cl)c(c34)OC[C@H]2C1 [Compound Z121]	–	> 10000	–	5	–	–	3	16
C=CC(=O)N1CCN2c3nc(=O)n(-c4c(C)ccnc4C(C)C)c4nc(-c5ccc(F)cc5F)c(Cl)c(c34)OC[C@H]2C1 (single isomer, unassigned) [Compound Z76-2]	1	–	8	2	> 10000	–	–	–
C=CC(=O)N1CCN2c3nc(=O)n(-c4c(C)ccnc4C(C)C)c4nc(-c5ccccc5C(F)(F)F)c(Cl)c(c34)OC[C@@H]2C1 [Compound Z66]	–	> 10000	–	7	–	–	3	39
C=CC(=O)N1CCN2c3nc(=O)n(-c4c(C)ccnc4C(C)C)c4nc(-c5ccc(F)cc5F)c(Cl)c(c34)OC[C@@H]2C1 (single isomer, unassigned) [Compound Z49-1]	6	–	64	–	> 10000	10	–	–
C=CC(=O)N1CCN2c3nc(=O)n(-c4c(C)nc(OC)nc4C(C)C)c4nc(-c5ccccc5F)c(Cl)c(c34)OC[C@H]2C1 [Compound Z116]	–	8890	–	26	–	–	3	26

Structure (SMILES)	IC50 [1] [nM]	IC50 ([2]; Homo sapiens, A549, 120 h) [nM]	IC50 [3] [nM]	IC50 [4, 5] [nM]	IC50 [2] [nM]	IC50 [4] [nM]	IC50 ([1]; Homo sapiens, NCI-H358, 120 h) [nM]	IC50 ([3]; Homo sapiens, MIA PaCa-2, 2 h) [nM]
C=CC(=O)N1CCN2c3nc(=O)n(-c4c(C)ccnc4C(C)C)c4nc(-c5ccccc5Cl)c(Cl)c(c34)OC[C@@H]2C1 [Compound Z58]	–	> 10000	–	3	–	–	1	14
C=CC(=O)N1CCN2c3nc(=O)n(-c4c(C)nc(OC)nc4C(C)C)c4nc(-c5c(O)cccc5F)c(F)c(c34)OC[C@H]2C1 [Compound Z115]	–	18700	–	21	–	–	5	31
C=CC(=O)N1CCN2c3nc(=O)n(-c4c(C)ccnc4C(C)C)c4nc(-c5ccccc5F)c(F)c(c34)OC[C@@H]2C1 [Compound Z84]	–	> 10000	–	22	–	–	13	105
C=CC(=O)N1CCN2c3nc(=O)n(-c4c(C)ccnc4C(C)C)c4nc(-c5cccc(F)c5F)c(Cl)c(c34)OC[C@H]2C1 (single isomer, unassigned) [Compound Z77-2]	1	–	8	2	> 10000	–	–	–
C=CC(=O)N1CCN2c3nc(=O)n(-c4c(C(C)C)ncnc4C(C)C)c4nc(-c5c(O)cccc5F)c(Cl)c(c34)OC[C@H]2C1 [Compound Z97]	–	26800	–	1	–	–	1	7
C=CC(=O)N1CCN2c3nc(=O)n(-c4nccnc4C(C)C)c4nc(-c5ccccc5F)c(Cl)c(c34)OC[C@H]2C1 [Compound Z104-1]	8	11300	14	12	–	–	–	–
C=CC(=O)N1CCN2c3nc(=O)n(-c4c(Cl)cncc4C(C)C)c4nc(-c5ccccc5F)c(Cl)c(c34)OC[C@H]2C1 [Compound Z114]	–	4630	–	74	–	–	8	39
C=CC(=O)N1CCN2c3nc(=O)n(-c4c(C)ccnc4C(C)C)c4nc(-c5cccc(Cl)c5F)c(Cl)c(c34)OC[C@@H]2C1 [Compound Z61]	–	> 10000	–	8	–	–	1	50
C=CC(=O)N1CCN2c3nc(=O)n(-c4nccnc4C(C)C)c4nc(-c5c(O)cccc5F)c(Cl)c(c34)OC[C@H]2C1 [Compound Z105-2]	5	–	20	11	> 30000	–	–	–
C=CC(=O)N1CCN2c3nc(=O)n(-c4c(C)ccnc4C(C)C)c4nc(-c5c(O)cccc5F)c(Cl)c(c34)OC[C@H]2C1 (single isomer, unassigned) [Compound Z23-1]	1	> 10000	–	3	–	–	–	13
C=CC(=O)N1CCN2c3nc(=O)n(-c4c(C(C)C)ccnc4C)c4nc(-c5c(O)cccc5F)c(F)c(c34)OC[C@H]2C1 [Compound Z92]	–	> 10000	–	2	–	–	3	25
C=CC(=O)N1CCN2c3nc(=O)n(-c4c(C)ccnc4C(C)C)c4nc(-c5c(O)ccc(F)c5F)c(Cl)c(c34)OC[C@@H]2C1 [Compound Z53]	–	> 10000	–	10	–	–	4	48
C=CC(=O)N1CCN2c3nc(=O)n(-c4c(OC)ncnc4C(C)C)c4nc(-c5c(O)cccc5F)c(F)c(c34)OC[C@H]2C1 [Compound Z111]	–	> 30000	–	7	–	–	4	47
C=CC(=O)N1CCN2c3nc(=O)n(-c4c(C)ccnc4C(C)C)c4nc(-c5c(O)cccc5F)c(Cl)c(c34)OC[C@@H]2C1 (single isomer, unassigned) [Compound Z24-2]	3	–	25	–	> 10000	8	–	–
C=CC(=O)N1CCN2c3nc(=O)n(-c4c(OC)ncnc4C(C)C)c4nc(-c5ccccc5F)c(Cl)c(c34)OC[C@H]2C1 [Compound Z110]	–	14700	–	11	–	–	4	43
